Measured values as given in PMC3733984, “Tylophorine, a phenanthraindolizidine alkaloid isolated from Tylophora indica exerts antiangiogenic and antitumor activity by targeting vascular endothelial growth factor receptor 2–mediated angiogenesis” (Molecular Cancer, 2013).

Target: VEGFR2 (KDR/Flk-1) (Homo sapiens, UniProt P35968)
Assay: in vitro HTScan VEGFR2 kinase assay, colorimetric ELISA detection ([…] ATP)
Type: biochemical

Chain of VEGFR2 (KDR/Flk-1) (P35968 20-1356): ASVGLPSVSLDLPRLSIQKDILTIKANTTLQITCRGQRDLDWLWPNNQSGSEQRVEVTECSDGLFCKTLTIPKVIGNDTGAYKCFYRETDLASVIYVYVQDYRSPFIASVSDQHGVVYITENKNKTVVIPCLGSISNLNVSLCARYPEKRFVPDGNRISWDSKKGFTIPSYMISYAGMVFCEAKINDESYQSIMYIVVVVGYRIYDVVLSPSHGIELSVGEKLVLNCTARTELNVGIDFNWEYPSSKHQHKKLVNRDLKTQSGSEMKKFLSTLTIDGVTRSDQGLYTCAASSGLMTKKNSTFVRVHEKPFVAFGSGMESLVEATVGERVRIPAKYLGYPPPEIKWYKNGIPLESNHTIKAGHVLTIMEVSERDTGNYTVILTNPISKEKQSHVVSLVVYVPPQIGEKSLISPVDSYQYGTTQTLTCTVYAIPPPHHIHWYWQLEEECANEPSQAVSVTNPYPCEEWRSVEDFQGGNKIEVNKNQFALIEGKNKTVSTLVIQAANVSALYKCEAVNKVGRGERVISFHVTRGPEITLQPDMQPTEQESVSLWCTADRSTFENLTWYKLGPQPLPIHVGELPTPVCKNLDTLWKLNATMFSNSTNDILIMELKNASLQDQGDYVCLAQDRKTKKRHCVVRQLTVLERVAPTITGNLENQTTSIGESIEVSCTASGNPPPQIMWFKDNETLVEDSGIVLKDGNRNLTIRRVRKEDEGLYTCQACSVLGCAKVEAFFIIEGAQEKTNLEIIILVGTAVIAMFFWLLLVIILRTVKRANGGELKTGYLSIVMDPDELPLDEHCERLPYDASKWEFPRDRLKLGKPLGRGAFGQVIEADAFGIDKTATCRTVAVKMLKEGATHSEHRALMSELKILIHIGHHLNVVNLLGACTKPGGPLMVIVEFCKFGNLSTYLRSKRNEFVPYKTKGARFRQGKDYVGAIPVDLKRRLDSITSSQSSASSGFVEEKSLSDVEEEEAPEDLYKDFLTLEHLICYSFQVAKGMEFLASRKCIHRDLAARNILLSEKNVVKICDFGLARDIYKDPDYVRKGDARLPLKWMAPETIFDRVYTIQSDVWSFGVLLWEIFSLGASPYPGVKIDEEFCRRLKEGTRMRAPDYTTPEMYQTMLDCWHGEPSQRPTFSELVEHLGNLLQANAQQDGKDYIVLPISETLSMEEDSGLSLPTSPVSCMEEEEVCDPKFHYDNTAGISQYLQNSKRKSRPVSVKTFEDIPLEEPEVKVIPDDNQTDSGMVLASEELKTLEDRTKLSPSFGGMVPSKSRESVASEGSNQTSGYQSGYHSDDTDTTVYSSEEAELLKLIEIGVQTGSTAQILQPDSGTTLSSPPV

In the case of `COc1cc2c3c(c4cc(OC)c(OC)cc4c2cc1OC)CN1CCC[C@@H]1C3` [Tylophorine], the IC50 is reported as ~9.2 µM.
